Reference: patent US6706663B2, “Herbicidal 3-heterocyclic substituted benzisothiazole and benzisoxazole compounds” (Wyeth, priority 2000, dated 2004)

Experiments:
[1] = tested on: TRZAWR (Wheat, Winter, cv Riband); experiment: Postemergence herbicidal evaluation; format: in vivo, Triticum aestivum
Method in brief: (§1)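 Seedlings grown for about two weeks were sprayed postemergence and then kept under standard greenhouse care. Injury was rated visually 4–5 weeks after treatment on a 0–9 scale against untreated controls, and ratings from repeat tests were averaged.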

[2] = tested on: AMBEL (Ambrosia artemisifolia); experiment: Postemergence herbicidal evaluation; format: in vivo, L.
Method in brief: as §1

[3] = tested on: CASOB (Cassia obtusifolia); experiment: Postemergence herbicidal evaluation; format: in vivo, L.
Method in brief: as §1

[4] = tested on: CHEAL (Chenopodium album); experiment: Postemergence herbicidal evaluation; format: in vivo, L.
Method in brief: as §1

SETVI (Setaria viridis) [5] = experiment: Preemergence herbicidal evaluation; format: in vivo, (L.) Beau; conditions: rated 4-5 weeks after treatment
Method in brief: (§2)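 Each species was sown separately in potting soil over roughly one inch of soil, and the surface sprayed with compound dissolved in aqueous acetone. Assessment used a 0–9 visual scale against a control after four to five weeks.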

[6] = tested on: ECHCG (Echinochloa crus-galli); experiment: Preemergence herbicidal evaluation; format: in vivo, (L.) Beau; conditions: rated 4-5 weeks after treatment
Method in brief: as §2

GALAP (Galium aparine) [7] = experiment: Preemergence herbicidal evaluation; format: in vivo; conditions: rated 4-5 weeks after treatment
Method in brief: as §2

[8] = tested on: CYPSE (Cyperus serotinus); experiment: Flooded paddy, preemergence weed control; format: in vivo, Rottb.; conditions: rate 0.1250 kg/ha, rated 3-4 weeks after treatment, 0-9 rating scale
Method in brief: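 Herbicidal effect was scored visually on a 0–9 scale against an untreated control 3–4 weeks after treatment. Compounds were applied preemergence as 50/50 v/v aqueous/acetone mixtures into flood water (1.5–3 cm deep over silt loam), at roughly 0.0080 to 0.1250 kg/ha active ingredient.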

CYPIR (Cyperus iria) = experiment: Flooded paddy, preemergence weed control; format: in vivo; conditions: rated 3-4 weeks after treatment, 0-9 rating scale
Method in brief: (§3)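 Ratings of 0-9 reflect visual comparison with a control for stand, vigor, deformity, size, chlorosis and overall look. Propagules were placed in shallow silt loam (top 0.5 cm) under a continuous 1.5–3 cm flood and grown in the greenhouse.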

[9] = tested on: SAGPY (Sagittaria pygmaea); experiment: Flooded paddy, preemergence weed control; format: in vivo, L.; conditions: rated 3-4 weeks after treatment, 0-9 rating scale
Method in brief: as §3

[10] = tested on: MOOVA (Monochoria vaginalis); experiment: Flooded paddy, preemergence weed control; format: in vivo, Presl.; conditions: rated 3-4 weeks after treatment, 0-9 rating scale
Method in brief: as §3

[11] = tested on: ABUTH (Abutilon theophrasti); experiment: Postemergence herbicidal evaluation; format: in vivo, Medic.
Method in brief: as §1

ORYSAT (Rice, Tebonnet) [12] = experiment: Postemergence herbicidal evaluation; format: in vivo, Oryza sativa, (L.) Tebonnet
Method in brief: as §1

[13] = tested on: IPOHE (Ipomoea hederacea); experiment: Postemergence herbicidal evaluation; format: in vivo, (L.) Jacq.
Method in brief: as §1

SETVI (Setaria viridis) [14] = experiment: Postemergence herbicidal evaluation; format: in vivo, (L.) Beau
Method in brief: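 Seedlings grown about two weeks were sprayed with compound in 50/50 acetone/water containing 0.5% TWEEN 20, at about 0.0040 to 1.000 kg/ha via nozzle at 40 psi. Plants were kept under greenhouse conditions and visually rated on a 0-9 scale versus control four to five weeks after treatment; replicate tests averaged.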

[15] = tested on: AMBEL (Ambrosia artemisifolia); experiment: Preemergence herbicidal evaluation; format: in vivo, L.; conditions: rated 4-5 weeks after treatment
Method in brief: as §2

[16] = tested on: CASOB (Cassia obtusifolia); experiment: Preemergence herbicidal evaluation; format: in vivo, L.; conditions: rated 4-5 weeks after treatment
Method in brief: as §2

[17] = tested on: CHEAL (Chenopodium album); experiment: Preemergence herbicidal evaluation; format: in vivo, L.; conditions: rated 4-5 weeks after treatment
Method in brief: as §2

ORYSAT (Rice, Tebonnet) [18] = experiment: Preemergence herbicidal evaluation; format: in vivo, Oryza sativa, (L.) Tebonnet; conditions: rated 4-5 weeks after treatment
GALAP (Galium aparine) [19] = experiment: Postemergence herbicidal evaluation; format: in vivo
Method in brief: as §1

Cc1cccnc1-c1nsc2cc(F)c(N3C(=O)C4=C(CCCC4)C3=O)cc12 [Compound 46, N-[6-fluoro-3-(3-methyl-2-pyridyl)-1,2-benzisothiazol-5-yl]-1-cyclohexene-1,2-dicarboximide]
Postemergence herbicidal rating, TRZAWR ([1]; rate 0.0320 kg/ha): 4.0 | Postemergence herbicidal rating, TRZAWR ([1]; rate 0.0620 kg/ha): 4.5 | Postemergence herbicidal rating, TRZAWR ([1]; rate 0.1250 kg/ha): 5.0 | Postemergence herbicidal rating, AMBEL ([2]; rate 0.0320 kg/ha): 7.0 | Postemergence herbicidal rating, AMBEL ([2]; rate 0.0620 kg/ha): 9.0 | Postemergence herbicidal rating, AMBEL ([2]; rate 0.1250 kg/ha): 9.0 | Postemergence herbicidal rating, CASOB ([3]; rate 0.0320 kg/ha): 7.0 | Postemergence herbicidal rating, CASOB ([3]; rate 0.0620 kg/ha): 9.0 | Postemergence herbicidal rating, CASOB ([3]; rate 0.1250 kg/ha): 9.0 | Postemergence herbicidal rating, CHEAL ([4]; rate 0.0320 kg/ha): 6.0 | Postemergence herbicidal rating, CHEAL ([4]; rate 0.0620 kg/ha): 9.0 | Postemergence herbicidal rating, CHEAL ([4]; rate 0.1250 kg/ha): 9.0 | Preemergence herbicidal rating SETVI (SETVI (Setaria viridis) [5]; Rate 0.0620 kg/ha): 9.0 | Preemergence herbicidal rating SETVI (SETVI (Setaria viridis) [5]; Rate 0.1250 kg/ha): 9.0 | Preemergence herbicidal rating SETVI (SETVI (Setaria viridis) [5]; Rate 0.2500 kg/ha): 9.0 | Preemergence herbicidal rating ECHCG ([6]; Rate 0.0620 kg/ha): 1.0 | Preemergence herbicidal rating ECHCG ([6]; Rate 0.1250 kg/ha): 5.0 | Preemergence herbicidal rating ECHCG ([6]; Rate 0.2500 kg/ha): 8.0 | Preemergence herbicidal rating GALAP (GALAP (Galium aparine) [7]; Rate 0.1250 kg/ha): 0.0 | Preemergence herbicidal rating GALAP (GALAP (Galium aparine) [7]; Rate 0.2500 kg/ha): 0.0 | herbicidal rating, CYPSE [8]: 0.0 | herbicidal rating, CYPIR (CYPIR (Cyperus iria); rate 0.0320 kg/ha): 1.0 | herbicidal rating, CYPIR (CYPIR (Cyperus iria); rate 0.1250 kg/ha): 3.0 | herbicidal rating, SAGPY ([9]; rate 0.0320 kg/ha): 0.0 | herbicidal rating, SAGPY ([9]; rate 0.1250 kg/ha): 2.0 | herbicidal rating, MOOVA ([10]; rate 0.0320 kg/ha): 7.0 | herbicidal rating, MOOVA ([10]; rate 0.1250 kg/ha): 7.0 | Postemergence herbicidal rating, ABUTH ([11]; rate 0.0320 kg/ha): 9.0 | Postemergence herbicidal rating, ABUTH ([11]; rate 0.0620 kg/ha): 9.0 | Postemergence herbicidal rating, ABUTH ([11]; rate 0.1250 kg/ha): 9.0 | Postemergence herbicidal rating, ORYSAT (ORYSAT (Rice, Tebonnet) [12]; rate 0.0320 kg/ha): 4.0 | Postemergence herbicidal rating, ORYSAT (ORYSAT (Rice, Tebonnet) [12]; rate 0.0620 kg/ha): 3.5 | Postemergence herbicidal rating, ORYSAT (ORYSAT (Rice, Tebonnet) [12]; rate 0.1250 kg/ha): 4.5 | Postemergence herbicidal rating, IPOHE ([13]; rate 0.0320 kg/ha): 9.0 | Postemergence herbicidal rating, IPOHE ([13]; rate 0.0620 kg/ha): 9.0 | Postemergence herbicidal rating, IPOHE ([13]; rate 0.1250 kg/ha): 9.0 | Postemergence herbicidal rating, SETVI (SETVI (Setaria viridis) [14]; rate 0.0320 kg/ha): 3.0 | Postemergence herbicidal rating, SETVI (SETVI (Setaria viridis) [14]; rate 0.0620 kg/ha): 4.0 | Postemergence herbicidal rating, SETVI (SETVI (Setaria viridis) [14]; rate 0.1250 kg/ha): 9.0 | Preemergence herbicidal rating AMBEL ([15]; Rate 0.0620 kg/ha): 1.0 | Preemergence herbicidal rating AMBEL ([15]; Rate 0.1250 kg/ha): 6.0 | Preemergence herbicidal rating AMBEL ([15]; Rate 0.2500 kg/ha): 9.0 | Preemergence herbicidal rating CASOB ([16]; Rate 0.0620 kg/ha): 1.0 | Preemergence herbicidal rating CASOB ([16]; Rate 0.1250 kg/ha): 1.0 | Preemergence herbicidal rating CASOB ([16]; Rate 0.2500 kg/ha): 3.0 | Preemergence herbicidal rating CHEAL ([17]; Rate 0.0620 kg/ha): 7.0 | Preemergence herbicidal rating CHEAL ([17]; Rate 0.1250 kg/ha): 9.0 | Preemergence herbicidal rating CHEAL ([17]; Rate 0.2500 kg/ha): 9.0 | Preemergence herbicidal rating ORYSAT (ORYSAT (Rice, Tebonnet) [18]; Rate 0.0620 kg/ha): 1.0 | Preemergence herbicidal rating ORYSAT (ORYSAT (Rice, Tebonnet) [18]; Rate 0.1250 kg/ha): 0.0 | Preemergence herbicidal rating ORYSAT (ORYSAT (Rice, Tebonnet) [18]; Rate 0.2500 kg/ha): 4.0 | Postemergence herbicidal rating, GALAP (GALAP (Galium aparine) [19]; rate 0.0320 kg/ha): 4.0 | Postemergence herbicidal rating, GALAP (GALAP (Galium aparine) [19]; rate 0.0620 kg/ha): 6.0 | Postemergence herbicidal rating, GALAP (GALAP (Galium aparine) [19]; rate 0.1250 kg/ha): 5.0
